The supplement of paper PMC10307832

Experiments:
Assay in all cases: relative viability (nuclei count vs DMSO), 5 days (fraction); higher = more cells survive
Nelarabine + Pictilisib = compound: COc1nc(N)nc2c1ncn2[C@@H]1O[C@H](CO)[C@@H](O)[C@@H]1O [Nelarabine] + CS(=O)(=O)N1CCN(Cc2cc3nc(-c4cccc5[nH]ncc45)nc(N4CCOCC4)c3s2)CC1 [Pictilisib] (partner 1 µM)
Summary of the method: (§1)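 The day after seeding in 1536-well plates, lung cancer cell lines were treated by pin tool with a single drug, or with a fixed anchor-drug dose together with five library-drug doses (not always all listed) in √10 steps. After 5 days, a combined fix-and-stain solution (final 0.05% Triton X-100, 1% formaldehyde, 1 ug/ml Hoechst) was added. Nuclei counted on 4× images gave relative viability as treated counts over vehicle counts, reported as the median of duplicate plates.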

Adavosertib + Trametinib = compound: C=CCn1c(=O)c2cnc(Nc3ccc(N4CCN(C)CC4)cc3)nc2n1-c1cccc(C(C)(C)O)n1 [Adavosertib] + CC(=O)Nc1cccc(-n2c(=O)n(C3CC3)c(=O)c3c(Nc4ccc(I)cc4F)n(C)c(=O)c(C)c32)c1 [Trametinib] (partner 0.02 µM)
Summary of the method: as §1

Adavosertib + Luminespib = compound: C=CCn1c(=O)c2cnc(Nc3ccc(N4CCN(C)CC4)cc3)nc2n1-c1cccc(C(C)(C)O)n1 [Adavosertib] + CCNC(=O)c1noc(-c2cc(C(C)C)c(O)cc2O)c1-c1ccc(CN2CCOCC2)cc1 [Luminespib] (partner 0.01 µM)
Summary of the method: as §1

Nelarabine + Olaparib = compound: COc1nc(N)nc2c1ncn2[C@@H]1O[C@H](CO)[C@@H](O)[C@@H]1O [Nelarabine] + O=C(c1cc(Cc2n[nH]c(=O)c3ccccc23)ccc1F)N1CCN(C(=O)C2CC2)CC1 [Olaparib] (partner 8 µM)
Summary of the method: as §1

Cell Line | relative viability (Nelarabine + Pictilisib; first compound 0.01 µM) | relative viability (Nelarabine + Pictilisib; first compound 0.03162 µM) | relative viability (Nelarabine + Pictilisib; first compound 0.1 µM) | relative viability (Nelarabine + Pictilisib; first compound 0.3162 µM) | relative viability (Nelarabine + Pictilisib; first compound 1 µM) | relative viability (Adavosertib + Trametinib; first compound 0.01 µM) | relative viability (Adavosertib + Trametinib; first compound 0.03162 µM) | relative viability (Adavosertib + Trametinib; first compound 0.1 µM) | relative viability (Adavosertib + Trametinib; first compound 0.3162 µM) | relative viability (Adavosertib + Luminespib; first compound 0.01 µM) | relative viability (Adavosertib + Luminespib; first compound 0.03162 µM) | relative viability (Adavosertib + Luminespib; first compound 0.1 µM) | relative viability (Adavosertib + Luminespib; first compound 0.3162 µM) | relative viability (Nelarabine + Olaparib; first compound 0.01 µM) | relative viability (Nelarabine + Olaparib; first compound 0.03162 µM) | relative viability (Nelarabine + Olaparib; first compound 0.1 µM) | relative viability (Nelarabine + Olaparib; first compound 0.3162 µM) | relative viability (Nelarabine + Olaparib; first compound 1 µM)
NCI-H322M | 0.505 | 0.523 | 0.433 | 0.568 | 0.542 | 0.48 | 0.489 | 0.471 | 0.389 | 0.764 | 0.789 | 0.57 | 0.398 | 0.79 | 0.75 | 0.701 | 0.827 | 0.836
LC-2-ad | 0.624 | 0.467 | 0.428 | 0.482 | 0.468 | 0.865 | 0.908 | 0.914 | 1.04 | 1.01 | 1.11 | 1.26 | 1.08 | 0.748 | 0.39 | 0.668 | 0.753 | 0.701
LOU-NH91 | 0.515 | 0.464 | 0.487 | 0.527 | 0.54 | 0.773 | 0.799 | 0.828 | 0.774 | 0.34 | 0.375 | 0.357 | 0.32 | 0.997 | 0.922 | 0.873 | 0.882 | 0.925
CAL-12T | 0.393 | 0.642 | 0.365 | 0.494 | 0.423 | 0.334 | 0.338 | 0.312 | 0.29 | 0.312 | 0.102 | 0.601 | 0.23 | 0.662 | 0.87 | 0.748 | 0.676 | 0.73
NCI-H2009 | 1.31 | 0.917 | 0.841 | 1.03 | 0.93 | 0.291 | 0.308 | 0.254 | 0.217 | 1.01 | 1.07 | 1.06 | 0.888 | 0.746 | 0.607 | 0.834 | 0.725 | 0.855
SK-LU-1 | 0.684 | 0.396 | 0.546 | 0.606 | 0.613 | 0.611 | 0.505 | 0.509 | 0.316 | 0.19 | 0.201 | 0.249 | 0.169 | 0.524 | 0.314 | 0.5 | 0.505 | 0.397
NCI-H1793 | 0.367 | 0.35 | 0.293 | 0.314 | 0.256 | 0.44 | 0.421 | 0.501 | 0.395 | 0.148 | 0.21 | 0.179 | 0.156 | 1.36 | – | 0.891 | 1.29 | 1.05
NCI-H3122 | 0.588 | 0.388 | – | 0.63 | 0.611 | 0.201 | 0.198 | 0.272 | 0.227 | 0.0987 | 0.0823 | 0.12 | 0.0969 | 0.668 | 0.607 | – | 0.745 | 0.661
NCI-H1437 | 0.465 | 0.356 | 0.373 | 0.426 | 0.47 | 0.546 | 0.545 | 0.484 | 0.414 | 1.07 | 1.2 | 1.17 | 1.07 | 0.701 | 0.611 | 0.656 | 0.695 | 0.611
NCI-H650 | 1.05 | 0.789 | 0.762 | 0.917 | 1.04 | 0.935 | 1.01 | 0.942 | 1.07 | 0.76 | 0.842 | 0.841 | 0.673 | 0.525 | 0.369 | 0.413 | 0.402 | 0.405
A-427 | 0.928 | 0.749 | 0.745 | 0.716 | 0.714 | 0.771 | 0.808 | 0.805 | 0.565 | 0.877 | 1 | 1.05 | 0.634 | 0.796 | 0.818 | 0.812 | 0.803 | 0.704
HCC-15 | 0.893 | 0.669 | 0.76 | 0.871 | 0.832 | 0.399 | 0.402 | 0.377 | 0.379 | 0.309 | 0.325 | 0.334 | 0.359 | 0.813 | 0.691 | 0.931 | 0.667 | 0.846
EKVX | 0.547 | 0.373 | 0.359 | 0.508 | 0.474 | 0.327 | 0.34 | 0.377 | 0.401 | 0.875 | 0.853 | 0.84 | 0.967 | 1.11 | 0.852 | 0.817 | 0.775 | 0.866
BEN | 0.67 | 0.596 | 0.605 | 0.607 | 0.641 | 1.02 | 1 | 1.27 | 1.18 | 0.195 | 0.501 | 0.413 | 0.389 | 1.3 | 1.08 | 1.11 | 1.04 | 1.25
201T | 0.792 | 0.556 | 0.718 | 0.714 | 0.705 | 0.657 | 0.707 | 0.736 | 0.718 | 1.1 | 1.04 | 1.05 | 1.09 | 0.876 | 0.835 | 0.845 | 0.858 | 0.835
SW 1573 | 0.68 | 0.53 | 0.535 | 0.485 | 0.639 | 0.525 | 0.564 | 0.605 | 0.638 | 0.177 | 0.226 | 0.192 | 0.198 | 0.52 | 0.469 | 0.553 | 0.565 | 0.66
HCC-827 | 0.956 | 0.863 | 0.931 | 0.814 | 0.76 | 0.533 | 0.567 | 0.492 | 0.522 | 0.598 | 0.774 | 0.42 | 0.667 | 0.673 | 0.622 | 0.571 | 0.571 | 0.463
NCI-H2228 | 0.275 | 0.235 | – | 0.452 | 0.268 | – | 0.498 | 0.465 | 0.404 | 0.186 | 0.159 | 0.132 | 0.134 | 0.664 | 0.574 | 0.322 | 0.826 | 0.447
